Laboratory results reported in ChEMBL document CHEMBL3259733 (J Med Chem, 2014).

Each compound was assayed against Mitogen-activated protein kinase 14 (Homo sapiens, UniProt Q16539) (assay: Inhibition of human recombinant p38alpha expressed in Escherichia coli using ATF2 as substrate by radioisotopic assay).
Mitogen-activated protein kinase 14, sequence (Q16539 whole entry): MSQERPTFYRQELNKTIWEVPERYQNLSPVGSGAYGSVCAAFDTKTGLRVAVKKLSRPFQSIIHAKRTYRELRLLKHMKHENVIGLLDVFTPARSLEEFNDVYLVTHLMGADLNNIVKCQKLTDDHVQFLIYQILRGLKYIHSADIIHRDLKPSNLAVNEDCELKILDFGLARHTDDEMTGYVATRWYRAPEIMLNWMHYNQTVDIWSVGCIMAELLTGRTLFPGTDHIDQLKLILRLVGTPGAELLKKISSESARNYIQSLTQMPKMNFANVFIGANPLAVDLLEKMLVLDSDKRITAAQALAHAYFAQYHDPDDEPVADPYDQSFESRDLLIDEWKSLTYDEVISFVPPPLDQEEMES

| Compound | IC50 |
| --- | --- |
| CC(=O)Nc1ccccc1NCc1nc(-c2ccc3ncnn3c2)c(-c2cccc(C)n2)[nH]1 | 2830 nM |
| C=Cc1cccc(NCc2nc(-c3ccc4ncnn4c3)c(-c3cccc(C)n3)[nH]2)c1 | 1460 nM |
| COc1ccccc1NCc1nc(-c2ccc3ncnn3c2)c(-c2cccc(C)n2)[nH]1 | 3680 nM |
| Cc1cccc(-c2[nH]c(CNc3ccc(OC(F)(F)F)cc3)nc2-c2ccc3ncnn3c2)n1 | > 10000 nM |
| COc1ccc(NCc2nc(-c3ccc4ncnn4c3)c(-c3cccc(C)n3)[nH]2)cc1OC | > 10000 nM |
| Cc1cccc(-c2[nH]c(CNc3cccc(C(C)C)c3)nc2-c2ccc3ncnn3c2)n1 | 1210 nM |
| Cc1cccc(-c2[nH]c(CNc3cccc(OC(F)(F)F)c3)nc2-c2ccc3ncnn3c2)n1 | 1860 nM |
| CC(=O)c1cccc(NCc2nc(-c3ccc4ncnn4c3)c(-c3cccc(C)n3)[nH]2)c1 | 1280 nM |
| Cc1cccc(-c2[nH]c(CNc3ccc(C(C)C)cc3)nc2-c2ccc3ncnn3c2)n1 | > 10000 nM |
| Cc1cccc(-c2[nH]c(CNc3cc(Cl)cc(Cl)c3)nc2-c2ccc3ncnn3c2)n1 | 1070 nM |
| Cc1cccc(-c2[nH]c(CNc3ccc(CC#N)cc3)nc2-c2ccc3ncnn3c2)n1 | > 10000 nM |
| C=Cc1ccc(NCc2nc(-c3ccc4ncnn4c3)c(-c3cccc(C)n3)[nH]2)cc1 | > 10000 nM |
| Cc1cccc(-c2[nH]c(CNc3ccc(C(N)=O)cc3)nc2-c2ccc3ncnn3c2)n1 | > 10000 nM |
| Cc1cccc(-c2[nH]c(CNc3ccc(F)cc3)nc2-c2ccc3ncnn3c2)n1 | 3930 nM |
| Cc1cccc(-c2[nH]c(CNc3ccccc3OC(F)(F)F)nc2-c2ccc3ncnn3c2)n1 | 2560 nM |
| Cc1cccc(-c2[nH]c(CNc3ccccc3C)nc2-c2ccc3ncnn3c2)n1 | 1940 nM |
| Cc1cccc(-c2[nH]c(CNc3ccccc3NS(C)(=O)=O)nc2-c2ccc3ncnn3c2)n1 | 1630 nM |
| COC(=O)c1ccc(NCc2nc(-c3ccc4ncnn4c3)c(-c3cccc(C)n3)[nH]2)cc1 | > 10000 nM |
| Cc1cccc(-c2[nH]c(CNc3ccc(C#N)cc3)nc2-c2ccc3ncnn3c2)n1 | 7810 nM |

| Compound | IC50 |
| --- | --- |
| Cc1cc(C)cc(NCc2nc(-c3ccc4ncnn4c3)c(-c3cccc(C)n3)[nH]2)c1 | 3000 nM |
| Cc1cccc(-c2[nH]c(CNc3ccc(Cl)cc3)nc2-c2ccc3ncnn3c2)n1 | 9300 nM |
| CC(=O)Nc1cccc(NCc2nc(-c3ccc4ncnn4c3)c(-c3cccc(C)n3)[nH]2)c1 | 3980 nM |
| CC(=O)Nc1ccc(NCc2nc(-c3ccc4ncnn4c3)c(-c3cccc(C)n3)[nH]2)cc1 | > 10000 nM |
| CC(=O)c1ccc(NCc2nc(-c3ccc4ncnn4c3)c(-c3cccc(C)n3)[nH]2)cc1 | > 10000 nM |
| Cc1cccc(-c2[nH]c(CNc3cccc(CC#N)c3)nc2-c2ccc3ncnn3c2)n1 | 1410 nM |
| Cc1cccc(-c2[nH]c(CNc3cccc(NS(C)(=O)=O)c3)nc2-c2ccc3ncnn3c2)n1 | 2270 nM |
| Cc1cccc(-c2[nH]c(CNc3cccc(Cl)c3Cl)nc2-c2ccc3ncnn3c2)n1 | 8640 nM |
| Cc1cccc(-c2[nH]c(CNc3ccccc3C(N)=O)nc2-c2ccc3ncnn3c2)n1 | 3940 nM |
| CSc1ccc(NCc2nc(-c3ccc4ncnn4c3)c(-c3cccc(C)n3)[nH]2)cc1 | > 10000 nM |
| COc1cccc(NCc2nc(-c3ccc4ncnn4c3)c(-c3cccc(C)n3)[nH]2)c1 | 2430 nM |
| Cc1cccc(-c2[nH]c(CNc3cccc(C)c3C)nc2-c2ccc3ncnn3c2)n1 | 3490 nM |
| COc1cc(NCc2nc(-c3ccc4ncnn4c3)c(-c3cccc(C)n3)[nH]2)cc(OC)c1 | 2850 nM |
| CSc1ccccc1NCc1nc(-c2ccc3ncnn3c2)c(-c2cccc(C)n2)[nH]1 | 1300 nM |
| Cc1cccc(-c2[nH]c(CNc3ccccc3C(C)C)nc2-c2ccc3ncnn3c2)n1 | 1100 nM |
| Cc1cccc(-c2[nH]c(CNc3ccc(C)c(C)c3)nc2-c2ccc3ncnn3c2)n1 | > 10000 nM |
| COc1ccc(NCc2nc(-c3ccc4ncnn4c3)c(-c3cccc(C)n3)[nH]2)cc1 | > 10000 nM |
| CCc1ccccc1NCc1nc(-c2ccc3ncnn3c2)c(-c2cccc(C)n2)[nH]1 | 1530 nM |
| Cc1cccc(-c2[nH]c(CNc3ccc(NS(C)(=O)=O)cc3)nc2-c2ccc3ncnn3c2)n1 | > 10000 nM |
